Laboratory results as given in paper PMC11926788, “Effect of SSR504734, a Selective Glycine Transporter Type 1 Inhibitor, on Seizure Thresholds, Neurotransmitter Levels, and Inflammatory Markers in Mice” (ACS Chemical Neuroscience, 2025).
“And” between values parts separate entries of the source, which are not always exact repeats. Equal values may be shown once. Where a name gives a salt, the structure may show the parent alone.

What was measured:
[1] = system: TNFα, IL-6, IL-1β, TLR4, IL-10, IFN-γ, IL-18 in serum; experiment: Inflammatory markers in serum (ELISA); assay type: in vivo, mice; settings: 14-day administration, 30 mg/kg i.p.
Description: ELISA kits were used to determine IL-1-β, IL-6, IL-10, TNF-α, and IFN-γ (EIAAB Science INC, Wuhan, Hubei, China, nos. E0563m, E0079m, E0056m, E0049m, E0133m, E0753m) and IL-18 (Biorbyt Ltd., Cambridge, United Kingdom, no. orb437211) in the liver homogenates and serum. All assays were performed according to the producer’s instructions. All samples were tested in triplicate.

rat GlyT1 = biological target: T1, rat GlyT1 (Rattus norvegicus, UniProt P28572); experiment: GlyT1 radioligand binding ([3H]glycine, rat brain cortex, Eurofins Panlabs)
T1 construct: tissue Eurofins Panlabs Discovery Services Taiwan, Ltd. (ran the assay); host or cells: Wistar rat brain cortex
T1 sequence (P28572 1-638): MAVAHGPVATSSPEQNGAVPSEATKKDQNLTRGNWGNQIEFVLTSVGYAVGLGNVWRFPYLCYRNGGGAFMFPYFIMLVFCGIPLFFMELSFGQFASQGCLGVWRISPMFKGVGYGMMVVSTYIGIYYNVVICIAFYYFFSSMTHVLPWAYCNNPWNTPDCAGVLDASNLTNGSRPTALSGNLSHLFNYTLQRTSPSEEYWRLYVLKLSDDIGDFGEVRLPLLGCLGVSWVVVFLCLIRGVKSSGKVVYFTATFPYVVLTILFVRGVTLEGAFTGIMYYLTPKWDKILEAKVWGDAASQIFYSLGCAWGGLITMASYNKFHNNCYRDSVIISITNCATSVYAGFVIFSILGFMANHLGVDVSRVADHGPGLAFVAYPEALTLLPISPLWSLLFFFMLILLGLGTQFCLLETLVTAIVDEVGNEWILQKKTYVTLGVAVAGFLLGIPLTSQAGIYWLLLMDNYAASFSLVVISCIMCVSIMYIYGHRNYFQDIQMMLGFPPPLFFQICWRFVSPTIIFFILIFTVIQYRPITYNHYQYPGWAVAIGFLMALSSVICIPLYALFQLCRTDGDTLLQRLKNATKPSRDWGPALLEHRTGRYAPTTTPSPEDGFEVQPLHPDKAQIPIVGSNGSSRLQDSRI

[2] = Metabolic stability in human liver microsomes (HLMs); assay type: in vitro ADME
Description: (§1) A series of in vitro ADME-Tox tests were performed for SSR504734 in order to estimate its drugability. The ADME-Tox parameters including permeability, plasma protein binding, metabolic stability, neurotoxicity, and hepatotoxicity were carried out as described previously.[31],[32] The ability of SSR504734 to penetrate through the biological membrane by passive diffusion was estimated by the Gentest Precoated PAMPA Plate System (Corning, Tewksbury, MA) and expressed as the permeability coefficient (Pe). The protein binding analysis was performed by using the commercial TRANSIL^XL PPB test, which mimics in vitro physiological plasma conditions where human serum albumin (HAS) and alpha-1-acid glycoprotein AGP are present in a 24:1 ratio. The human metabolism of SSR504734 was studied using human liver microsomes (HLMs) provided by Sigma-Aldrich. The hepatotoxicity and neurotoxicity were estimated in cellular models with the use of hepatoma HepG2 and neuroblastoma SH-SY5Y cell lines to perform the preliminary safety tests. The cells were incubated with SSR504734 at the concentration range of 0.1–100 μM. 1 μM cytostatic drug doxorubicin (DX) was used as the reference.

[3] = system: human serum albumin and alpha-1-acid glycoprotein; experiment: Plasma protein binding (TRANSIL XL PPB test); assay type: in vitro ADME; settings: ± SD, fraction bound to plasma proteins, read-out: PPB fb (converted)
Description: as §1

[4] = Chimney test (motor coordination); assay type: in vivo, mice
Description: The impact of SSR504734 on motor coordination in mice was evaluated by using the chimney test. Each animal was individually placed inside a transparent Plexiglas tube with an inner diameter of 3 cm and a length of 30 cm. The tube was horizontally positioned on a table and shifted vertically once the mouse reached the opposite end. Within a 60 s time frame, the mouse was required to climb backward to escape from the tube. In order to minimize the number of animals used, a chimney test was carried out shortly before seizure tests.
Table S2. Time-course effect of SSR5504734 on neuromuscular strength and motor […]
Group Neuromuscular strength Impairment of motor
SSR504734 was dissolved in normal saline and injected i.p. at the dose of 30 mg/kg. Control animals received saline. The data are expressed as the mean ± SD of grip strengths measured in millinewtons per gram of mouse body weight (mN/g) from the grip-strength test assessing […]
coordination impairment in the chimney test. Each experimental group consisted of 12 animals. The grip-strength test results were analyzed using a one-way ANOVA with Dunnett’s post hoc test, while the data from the chimney test were statistically evaluated using Fisher’s exact probability test. *p<0.05 vs. control group.
Table S3. Effect of acute and 14-day treatment with SSR504734 on neuromuscular strength and motor coordination in mice
In acute studies, SSR504734 and sodium valproate (VPA; positive control) were injected i.p.
60 and 15 min before the test, respectively. In subchronic studies, SSR504734 and VPA were injected i.p. every 24 h for 14 days. The last administration was made 60 and 15 min before the tests, respectively. Control animals received saline. Each experimental group consisted of 12 animals. The grip-strength test results were analyzed using a one-way ANOVA with […]
Fisher’s exact probability test.

[5] = read-out: % inhibition of control specific binding

## O=C(NC(c1ccccc1)C1CCCCN1)c1cccc(C(F)(F)F)c1Cl [SSR504734, 2-chloro-N-[(S)-phenyl[(2S)-piperidin-2-yl]methyl]-3-trifluoromethyl benzamide monohydrochloride]
[1]
  serum concentration of IFN-γ: no statistically significant differences
  serum concentration of IL-1β: significant increase
  serum concentration of IL-6: significant increase
  serum concentration of IL-10: significant increase
  serum concentration of IL-18: no statistically significant differences
  serum concentration of TNFα: significant increase
  serum concentration of TRL4: significant increase
Rat GlyT1; 0.1 μM, rat brain cortex
  % inhibition of control specific binding: moderate interaction
Rat GlyT1; [5]
  inhibition at 0.1 µM: 42%
  inhibition at 20 µM: 52%
  inhibition at 100 µM: 62%
[2]; 120 min incubation with HLMs, UPLC analysis
  metabolized: 5%
[2]; after 120 min of incubation with human liver microsomes
  remaining at 2 h: 94.7%
[2]; after incubation with HLMs
  metabolic pathway, metabolite M1: hydroxylation, oxidation, and dehydrogenation
  metabolic pathway, metabolite M2: dehydrogenation
  metabolic pathway, metabolite M3: oxidation
[3]
  fraction unbound: 0.013
[4]; 30 mg/kg i.p., 15 min
  Impairment of motor coordination: 0%
[4]; 30 mg/kg i.p., 30 min
  Impairment of motor coordination: 0%
[4]; 30 mg/kg i.p., 60 min
  Impairment of motor coordination: 0%
[4]; 30 mg/kg i.p., 120 min
  Impairment of motor coordination: 8.33%
[4]; 30 mg/kg i.p., 240 min
  Impairment of motor coordination: 0%
[4]; 14-day treatment, 3 mg/kg i.p.
  Impairment of motor coordination: 0%
[4]; 14-day treatment, 10 mg/kg i.p.
  Impairment of motor coordination: 0%
[4]; 14-day treatment, 30 mg/kg i.p.
  Impairment of motor coordination: 0%
[4]; acute treatment, 10 mg/kg i.p.
  Impairment of motor coordination: 0%
[4]; acute treatment, 30 mg/kg i.p.
  Impairment of motor coordination: 0%
[4]; acute treatment, 50 mg/kg i.p., 50 mg/kg
  Impairment of motor coordination: 33.3% and ~33%
